Patent publication US20180104224A1, “PHARMACEUTICAL COMPOSITIONS COMPRISING ANTIBACTERIAL AGENTS” (priority 2014, published 2018)

Columns and labels:
[1] = test system: Pseudomonas aeruginosa R70; assay: Time kill study; type: cell-based; conditions: P. aeruginosa R70; for effect on bacterial counts through out the duration of the study (in words): when used alone
Method: (§1) The synergistic killing effect of the combinations according to invention was studied by performing time kill studies. In a typical time kill study, the freshly grown cultures were diluted to the required cell density (initial starting inoculum) in Cation adjusted Muller Hinton broth medium (BD, USA). The antibacterial agents (either alone or in combination) at the required concentrations were added into the culture-containing medium. The samples were incubated under shaking condition (120 rpm) at 37° C. Enumeration of viable bacterial count was done every 2 hour by diluting in normal saline and plating on to the Tryptic Soya Agar plates (BD, USA). The plates were incubated for 24 hours to arrive at the viable bacterial count. The results are expressed in terms of Log10 CFU per ml. In general, the decrease of 1 Log10 CFU/ml, corresponds to 90% killing of bacteria.

[2] = test system: Pseudomonas aeruginosa 1405; assay: Time kill study; type: cell-based; conditions: P. aeruginosa 1405; for effect on bacterial counts through out the duration of the study (in words): when used alone; for Bacterial count (Log10 CFU/ml) 0 hour / Bacterial count (Log10 CFU/ml) 2 hour / Bacterial count (Log10 CFU/ml) 4 hour / Bacterial count (Log10 CFU/ml) 6 hour: single agent 4 mcg/ml
Method: as §1

[3] = test system: highly resistant strains of Pseudomonas aeruginosa; assay: MIC determination, all strains; type: cell-based; conditions: highly resistant strains of P. aeruginosa
Method: (§2) The antibacterial activity of combinations according to the invention against resistant bacterial strains was investigated. Minimum Inhibitory Concentration (MIC) determination for the combinations according to invention was carried out in Muller Hinton Agar (MHA) (BD, USA) according to Clinical and Laboratory Standards Institute (CLSI) recommendations, (Clinical and Laboratory Standards Institute (CLSI), Performance Standards for Antimicrobial Susceptibility Testing, 20th Informational Supplement, M 100-S20, Volume 30, No. 1, 2010). In short, the test strains were adjusted to deliver about 10^4 CFU per spot with a multipoint inoculator (Applied Quality Services, UK). The plates were pored with MHA containing doubling concentration range of the test combinations according to invention. The plates were inoculated and were incubated at 35° C. for 18 hours.
The results on antibacterial activity of a carbapenem antibacterial agent selected from imipenem, meropenem, ertapenem and doripenem alone and in combination with Compound A or Compound B, against highly resistant strains of Pseudomonas aeruginosa are given in Table 1. […] For example, P. aeruginosa 2779 harbors resistance due to increased AmpC expression (300 times) and increased efflux; P. aeruginosa 1405 harbors resistance due to increased AmpC expression (600 times), reduced OprD expression and increased efflux; P. aeruginosa R 70 harbors resistance due to reduced OprD expression and increased efflux; and P. aeruginosa J 154 harbors resistance due to reduced OprD.

P. aeruginosa R 70 = assay: MIC determination in Muller Hinton Agar (CLSI);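 as to MIC (mcg/ml) of carbapenem in presence of [A] at 4 mcg/ml: MIC read as lowest concentration giving complete growth inhibition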;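 as to MIC (mcg/ml) of carbapenem in presence of [B] at 4 mcg/ml: MIC read as lowest concentration giving complete growth inhibition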; type: cell-based, Pseudomonas aeruginosa; conditions: for MIC: Pseudomonas aeruginosa, R70, 18 h, agent alone, P. aeruginosa R 70 [Reduced OprD + increased efflux]; for MIC (mcg/ml) of carbapenem in presence of [A] at 4 mcg/ml: in presence of Compound A at 4 mcg/ml; for MIC (mcg/ml) of carbapenem in presence of [A] at 4 mcg/ml / MIC (mcg/ml) of carbapenem in presence of [B] at 4 mcg/ml: P. aeruginosa R 70; for MIC (mcg/ml) of carbapenem in presence of [B] at 4 mcg/ml: in presence of Compound B at 4 mcg/ml
Method: as §2

P. aeruginosa J 154 = assay: MIC determination in Muller Hinton Agar (CLSI); type: cell-based, Pseudomonas aeruginosa; conditions: for MIC: Pseudomonas aeruginosa, J154, agent alone, P. aeruginosa J 154 [Reduced OprD]; for MIC (mcg/ml) of carbapenem in presence of [A] at 4 mcg/ml: in presence of Compound A at 4 mcg/ml; for MIC (mcg/ml) of carbapenem in presence of [A] at 4 mcg/ml / MIC (mcg/ml) of carbapenem in presence of [B] at 4 mcg/ml: P. aeruginosa J 154; for MIC (mcg/ml) of carbapenem in presence of [B] at 4 mcg/ml: in presence of Compound B at 4 mcg/ml
Method: as §2

P. aeruginosa 1405 = assay: MIC determination in Muller Hinton Agar (CLSI); type: cell-based, Pseudomonas aeruginosa; conditions: for MIC (mcg/ml) of carbapenem in presence of [A] at 4 mcg/ml: in presence of Compound A at 4 mcg/ml; for MIC (mcg/ml) of carbapenem in presence of [B] at 4 mcg/ml: in presence of Compound B at 4 mcg/ml;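 as to all read-outs here: MIC read as lowest concentration giving complete growth inhibition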
Method: as §2

P. aeruginosa 2779 = assay: MIC determination in Muller Hinton Agar (CLSI); type: cell-based, Pseudomonas aeruginosa; conditions: for MIC (mcg/ml) of carbapenem in presence of [A] at 4 mcg/ml: in presence of Compound A at 4 mcg/ml; for MIC (mcg/ml) of carbapenem in presence of [B] at 4 mcg/ml: in presence of Compound B at 4 mcg/ml;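 as to all read-outs here: MIC read as lowest concentration giving complete growth inhibition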
Method: as §2

[4] = in presence of Compound A or Compound B

## C[C@@H](O)[C@H]1C(=O)N2C(C(=O)O)=C(S[C@@H]3CN[C@H](CNS(N)(=O)=O)C3)[C@H](C)[C@H]12 [Doripenem, doripenem]
[1]
  effect on bacterial counts through out the duration of the study (in words): failed to reduce the bacterial counts
[1]; Table 4, single agent 4 mcg/ml
  Bacterial count (Log10 CFU/ml) 0 hour: 6.62 Log10 CFU/ml
  Bacterial count (Log10 CFU/ml) 2 hour: 5.74 Log10 CFU/ml
  Bacterial count (Log10 CFU/ml) 4 hour: 5.65 Log10 CFU/ml
  Bacterial count (Log10 CFU/ml) 6 hour: 5.65 Log10 CFU/ml
[1]; Table 5, single agent 4 mcg/ml
  Bacterial count (Log10 CFU/ml) 0 hour: 6.44 Log10 CFU/ml
  Bacterial count (Log10 CFU/ml) 2 hour: 5.74 Log10 CFU/ml
  Bacterial count (Log10 CFU/ml) 4 hours: 5.65 Log10 CFU/ml
  Bacterial count (Log10 CFU/ml) 6 hour: 5.65 Log10 CFU/ml
[2]
  effect on bacterial counts through out the duration of the study (in words): failed to reduce the bacterial counts
[2]; Table 2
  Bacterial count (Log10 CFU/ml) 0 hour: 6.84 Log10 CFU/ml
  Bacterial count (Log10 CFU/ml) 2 hour: 6.17 Log10 CFU/ml
  Bacterial count (Log10 CFU/ml) 4 hour: 5.90 Log10 CFU/ml
  Bacterial count (Log10 CFU/ml) 6 hour: 6.60 Log10 CFU/ml
[2]; Table 3
  Bacterial count (Log10 CFU/ml) 0 hour: 6.81 Log10 CFU/ml
  Bacterial count (Log10 CFU/ml) 2 hour: 6.17 Log10 CFU/ml
  Bacterial count (Log10 CFU/ml) 4 hour: 5.90 Log10 CFU/ml
  Bacterial count (Log10 CFU/ml) 6 hour: 6.60 Log10 CFU/ml
[3]; [4]
  MIC values (in words): decreased significantly
[3]; when used alone
  MIC values (in words): higher MIC values
P. aeruginosa R 70
  MIC: 16 µg/mL
  MIC (mcg/ml) of carbapenem in presence of [A] at 4 mcg/ml: 8 µg/mL
  MIC (mcg/ml) of carbapenem in presence of [B] at 4 mcg/ml: <0.12 µg/mL
P. aeruginosa J 154
  MIC: 8 µg/mL
  MIC (mcg/ml) of carbapenem in presence of [A] at 4 mcg/ml: 8 µg/mL
  MIC (mcg/ml) of carbapenem in presence of [B] at 4 mcg/ml: 4 µg/mL
P. aeruginosa 1405
  MIC (mcg/ml) of carbapenem in presence of [A] at 4 mcg/ml: 4 µg/mL
  MIC (mcg/ml) of carbapenem in presence of [B] at 4 mcg/ml: 4 µg/mL
P. aeruginosa 2779
  MIC (mcg/ml) of carbapenem in presence of [A] at 4 mcg/ml: 0.12 µg/mL
  MIC (mcg/ml) of carbapenem in presence of [B] at 4 mcg/ml: 0.06 µg/mL

## C[C@@H](O)[C@H]1C(=O)N2C(C(=O)O)=C(SCCN=CN)C[C@H]12 [Imipenem, imipenem]
[1]; Table 4, single agent 2 mcg/ml
  Bacterial count (Log10 CFU/ml) 0 hour: 6.62 Log10 CFU/ml
  Bacterial count (Log10 CFU/ml) 2 hour: 5.7 Log10 CFU/ml
  Bacterial count (Log10 CFU/ml) 4 hour: 5.98 Log10 CFU/ml
  Bacterial count (Log10 CFU/ml) 6 hour: 6.78 Log10 CFU/ml
[1]; Table 5, single agent 2 mcg/ml
  Bacterial count (Log10 CFU/ml) 0 hour: 6.44 Log10 CFU/ml
  Bacterial count (Log10 CFU/ml) 2 hour: 5.6 Log10 CFU/ml
  Bacterial count (Log10 CFU/ml) 4 hours: 5.8 Log10 CFU/ml
  Bacterial count (Log10 CFU/ml) 6 hour: 6.3 Log10 CFU/ml
[2]; Table 2
  Bacterial count (Log10 CFU/ml) 0 hour: 6.84 Log10 CFU/ml
  Bacterial count (Log10 CFU/ml) 2 hour: 6.39 Log10 CFU/ml
  Bacterial count (Log10 CFU/ml) 4 hour: 7.04 Log10 CFU/ml
  Bacterial count (Log10 CFU/ml) 6 hour: 8.16 Log10 CFU/ml
[2]; Table 3
  Bacterial count (Log10 CFU/ml) 0 hour: 6.81 Log10 CFU/ml
  Bacterial count (Log10 CFU/ml) 2 hour: 6.4 Log10 CFU/ml
  Bacterial count (Log10 CFU/ml) 4 hour: 7.78 Log10 CFU/ml
  Bacterial count (Log10 CFU/ml) 6 hour: 7.93 Log10 CFU/ml
P. aeruginosa R 70
  MIC: 8 µg/mL
  MIC (mcg/ml) of carbapenem in presence of [A] at 4 mcg/ml: 2 µg/mL
  MIC (mcg/ml) of carbapenem in presence of [B] at 4 mcg/ml: ≤0.12 µg/mL
P. aeruginosa J 154
  MIC: 16 µg/mL
  MIC (mcg/ml) of carbapenem in presence of [A] at 4 mcg/ml: 4 µg/mL
  MIC (mcg/ml) of carbapenem in presence of [B] at 4 mcg/ml: 0.5 µg/mL
P. aeruginosa 1405
  MIC (mcg/ml) of carbapenem in presence of [A] at 4 mcg/ml: 1 µg/mL
  MIC (mcg/ml) of carbapenem in presence of [B] at 4 mcg/ml: 1 µg/mL
P. aeruginosa 2779
  MIC (mcg/ml) of carbapenem in presence of [A] at 4 mcg/ml: ≤0.25 µg/mL
  MIC (mcg/ml) of carbapenem in presence of [B] at 4 mcg/ml: 0.12 µg/mL

## C[C@@H](O)[C@H]1C(=O)N2C(C(=O)O)=C(S[C@@H]3CN[C@H](C(=O)N(C)C)C3)[C@H](C)[C@H]12 [Meropenem, meropenem]
[1]
  effect on bacterial counts through out the duration of the study (in words): failed to reduce the bacterial counts
[1]; Table 4, single agent 4 mcg/ml
  Bacterial count (Log10 CFU/ml) 0 hour: 6.62 Log10 CFU/ml
  Bacterial count (Log10 CFU/ml) 2 hour: 7.07 Log10 CFU/ml
  Bacterial count (Log10 CFU/ml) 4 hour: 6.84 Log10 CFU/ml
  Bacterial count (Log10 CFU/ml) 6 hour: 8.36 Log10 CFU/ml
[1]; Table 5, single agent 4 mcg/ml
  Bacterial count (Log10 CFU/ml) 0 hour: 6.44 Log10 CFU/ml
  Bacterial count (Log10 CFU/ml) 2 hour: 6.14 Log10 CFU/ml
  Bacterial count (Log10 CFU/ml) 4 hours: 7.07 Log10 CFU/ml
  Bacterial count (Log10 CFU/ml) 6 hour: 7.3 Log10 CFU/ml
[2]
  effect on bacterial counts through out the duration of the study (in words): failed to reduce the bacterial counts
[2]; Table 2
  Bacterial count (Log10 CFU/ml) 0 hour: 6.84 Log10 CFU/ml
  Bacterial count (Log10 CFU/ml) 2 hour: 5.95 Log10 CFU/ml
  Bacterial count (Log10 CFU/ml) 4 hour: 6.89 Log10 CFU/ml
  Bacterial count (Log10 CFU/ml) 6 hour: 7.02 Log10 CFU/ml
[2]; Table 3
  Bacterial count (Log10 CFU/ml) 0 hour: 6.81 Log10 CFU/ml
  Bacterial count (Log10 CFU/ml) 2 hour: 6.8 Log10 CFU/ml
  Bacterial count (Log10 CFU/ml) 4 hour: 7.0 Log10 CFU/ml
  Bacterial count (Log10 CFU/ml) 6 hour: 7.3 Log10 CFU/ml
[3]; [4]
  MIC values (in words): decreased significantly
[3]; when used alone
  MIC values (in words): higher MIC values
P. aeruginosa R 70
  MIC: > 32 µg/mL
  MIC (mcg/ml) of carbapenem in presence of [A] at 4 mcg/ml: 16 µg/mL
  MIC (mcg/ml) of carbapenem in presence of [B] at 4 mcg/ml: ≤0.12 µg/mL
P. aeruginosa J 154
  MIC: 16 µg/mL
  MIC (mcg/ml) of carbapenem in presence of [A] at 4 mcg/ml: 8 µg/mL
  MIC (mcg/ml) of carbapenem in presence of [B] at 4 mcg/ml: <0.25 µg/mL
P. aeruginosa 1405
  MIC (mcg/ml) of carbapenem in presence of [A] at 4 mcg/ml: 4 µg/mL
  MIC (mcg/ml) of carbapenem in presence of [B] at 4 mcg/ml: 0.12 µg/mL
P. aeruginosa 2779
  MIC (mcg/ml) of carbapenem in presence of [A] at 4 mcg/ml: 0.12 µg/mL
  MIC (mcg/ml) of carbapenem in presence of [B] at 4 mcg/ml: 0.12 µg/mL
